Results on 2 molecules are retold here after patent US11351218B2, “Composition for preventing or treating glioblastoma comprising Platycodon grandiflorum A. De Candolle, Scutellaria baicalensis, Phellodendron amurense Ruprecht or Rubus coreanus” (University-Industry Cooperation Group of Kyung Hee …, priority 2019, dated 2022).

Common to all, as to type: cell-based, human
The test system of assay [1] is LC3B and SQSTM1/p62. Kind of assay: Immunoblot of autophagy-related proteins (LC3B, SQSTM1/p62) in U373MG cells. The note with it: 50 μM pre-incubation 30 minutes, then PD 10 μM 24 hours. The procedure:
The effects of 26 kinds of herbal medicines, which influence the expression of autophagy-related proteins (LC3B and SQSTM1/p62) in total cell lysates from U87MG and U373MG cells, […] GAPDH was used as a loading control.
The human glioma cell lines, U87MG and U373MG, were cultured respectively in RPMI-1640 (Welgene) and DMEM (Welgene, Daegu, Korea) supplemented with 10% fetal bovine serum (FBS, JR Scientific) and 1% antibiotics (Ab, Welgene). All cultures were maintained at 37° C. in a humidified incubator containing 5% CO2.
(§1) Cells treated with the concentrations and materials described in FIGS. 1-3B, 7, 8, 10, 13, 16, 18, and 20 were lysed in buffer containing 20 mM Tris-HCl (pH 7.5), 150 mM NaCl, 1 mM EDTA, 1 mM Na2EDTA, 1 mM EGTA, 1% NP-40, 1% sodium deoxycholate, 1 mM Na3VO4, 1 mM MPI, 1 mM PMSF, and PI cocktails for 15 to 20 minutes on ice. Cell lysates were separated by SDS-PAGE and transferred to nitrocellulose membranes. […] The protein bands were detected with ECL western Blotting Substrate (Thermo Fisher Scientific, Waltham, Mass., USA).
To discover novel autophagy inhibitors, 26 herbal medicines were screened by western blot analysis. […] Therefore, the effect of each herbal medicine on the change in the p62 level was evaluated, given that a rise in the amount of p62 is related to the inhibition of autophaic flux.
In general terms: A western blot detects proteins with antibodies after separation by electrophoresis.

Assay [2] relates to p-ERK. Description: Immunoblot of ERK phosphorylation, U373MG cells. The note with it: 50 μM pre-incubation 30 minutes, then PD 10 μM 24 hours. As to the method: FIGS. 10A to 10D show the results that PD-mediated autophagy inhibition is independent of mTOR and MAPK signaling pathways. FIGS. 10A to 10C show the results in which cells were treated with PD (0 μM, 0.5 μM, 1 μM, 5 μM, and 10 μM) for 24 hours. The immunoblot analyses for p-ULK1 (Ser757), ULK1, p-S6K (Thr389), p-AKT (Ser473), ERK2, P-ERK, p-JNK1, Beclin, and ATG7 were performed using lysates from GBMs. […] Total protein extracts were analyzed by immunoblot analyses for p-ERK, LC3B, and SQSTM1. GAPDH was used as an internal control.
as §1
Previous studies have shown that PD enhances autophagy via mTOR/MAPK pathway. […] It is known that mTORC1 activation, measured by S6K phosphorylation, inhibits autophagy initiation by phosphorylating the ULK1 (Ser 757). […]

For assay [3], the system named is Ax1. Description: Western blot of Ax1 expression after natural compounds, U87MG and U373MG cells. The note with it: varying concentrations, 48 hours. As to the method:
Cells were washed with PBS and dissolved using a RIPA buffer (150 mM NaCl, 1% NP-40, 0.5% DOC, 0.1% SDS, 50 mM Tris (pH 8.0), 1 mM EDTA, 1 mM PMSF, 1 mM NaF, 1 mM Na3PO4, 1 μL aprotinin, leupeptin, and pepstatin), and proteins were isolated by centrifugation at 3,000× g for 20 minutes. An equal amount (20 μg) of each of the proteins was separated by 10% sodium dodecyl sulfate-polyacrylamide gel electrophoresis (SDS-PAGE) and the proteins separated using the Trans-blot unit were transferred to a nitrocellulose (NC) membrane. The membrane to which proteins were transferred was blocked with 5% non-fat dry milk (Tris buffered saline (TBS-T) containing 0.1% Tween-20) at room temperature for 1 hour, and primary antibodies, which were diluted at a 1:1,000 concentration, were allowed to react the proteins at 4° C. for 16 hours. After washing with PBS, the resultant was allowed to react with secondary antibodies, which were diluted at a 1:5,000 concentration, at room temperature for 1 hour. A Pierce ECL Western Blotting Substrate, which also underwent a washing process, was coated onto the membrane and allowed to react in a dark room with a film, and thereby, specific protein bands were confirmed. […]

Take `COc1cccc(-c2cc(=O)c3ccccc3o2)c1N` [PD98095, reference compound]: in assay [1], the “levels of LC3B-II and p62” value is “did not alter”. The “phosphorylation of ERK” value in assay [2] is on record as “effectively inhibited”.

For `O=c1c(O)c(-c2ccc(O)c(O)c2)oc2cc(O)cc(O)c12` [quercetin], in assay [3], the “expression of Ax1” value is given as “reduced the expression of Ax1”.
